PMC7114193 (Antiviral Research, 2012)

Tests used:
rhACE2 = rhACE2 (Homo sapiens, UniProt Q9BYF1); type: binding
[1] = system: spike protein and ACE2 interaction; conditions: cited from earlier work

rhACE2, sequence (Q9BYF1 18-740): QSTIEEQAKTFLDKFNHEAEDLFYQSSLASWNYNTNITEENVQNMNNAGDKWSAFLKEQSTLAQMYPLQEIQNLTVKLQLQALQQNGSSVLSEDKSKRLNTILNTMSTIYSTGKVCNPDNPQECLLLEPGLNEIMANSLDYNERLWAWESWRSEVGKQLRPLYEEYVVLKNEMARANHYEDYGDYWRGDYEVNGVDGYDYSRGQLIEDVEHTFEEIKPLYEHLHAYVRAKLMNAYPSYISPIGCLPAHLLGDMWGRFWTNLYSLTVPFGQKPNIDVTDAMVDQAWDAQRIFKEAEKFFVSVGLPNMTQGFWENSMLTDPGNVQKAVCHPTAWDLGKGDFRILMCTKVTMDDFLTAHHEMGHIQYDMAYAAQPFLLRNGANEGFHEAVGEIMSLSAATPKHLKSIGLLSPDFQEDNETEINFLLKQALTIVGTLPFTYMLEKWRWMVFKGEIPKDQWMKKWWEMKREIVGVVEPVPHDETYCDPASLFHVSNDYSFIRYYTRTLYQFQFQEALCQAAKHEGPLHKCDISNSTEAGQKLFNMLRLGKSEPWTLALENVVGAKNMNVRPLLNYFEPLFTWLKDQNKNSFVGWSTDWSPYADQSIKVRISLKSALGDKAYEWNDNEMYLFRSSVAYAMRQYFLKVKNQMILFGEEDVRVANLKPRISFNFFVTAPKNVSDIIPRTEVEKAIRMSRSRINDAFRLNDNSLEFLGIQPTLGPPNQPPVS

| Substance | SPR binding to ACE2 (in words) (rhACE2) | also measured |
| --- | --- | --- |
| IGYQPY [RBD-15c] | no interaction observable |  |
| YKYDYL | No binding was observed |  |
| SYWPLN [RBD-14b] | only weak interaction | SPR response (rhACE2): 7 RU |
| ALNSYW [RBD-14a] |  | SPR response (rhACE2): 5 RU |
| NYNYKY [RBD-11a] |  | SPR response signal (rhACE2): 5 RU |
| FYTTTGIGYQPY [SP-8] |  | inhibition of spike protein and ACE2 interaction (in words) [1]: inhibitory activity |
| YDYRYL | No binding was observed |  |
